US8618357B2, “Sweetpotato SRD1 cDNA and transgenic plants with high-numbered storage roots using the same” (Korea University Research and Business Foundation, priority 2010, dated 2013)

System: SRD1 transcript
Experiment: Transcriptional regulation of SRD1 in response to exogenous IAA in fibrous roots of single-leaf plantlets (real-time RT-PCR)
Assay type: in vivo, sweetpotato
Conditions: for transcript level of SRD1: fibrous roots, 25° C. in the dark, FIG. 7A; for transcript level of SRD1 (time course): FIG. 7B
Method: To determine the transcriptional regulation of SRD1, SRD1-specific primers [5′-[…]-3′(SEQ ID NO.: 10) and 5′-GTGCACGAAACTCCCCTT-3′(SEQ ID NO.: 11)] were designed to contain nucleotide 180 (the nucleotide showing an SNP between SRD1 and IbMADS1) and the 3 bp deletion region in SRD1 at the 3′ end of the forward primer and at the 3′ end of the reverse primer, respectively (FIG. 1).
The roots of sweetpotato were treated with IAA according to the following method. Sweetpotato plantlets bearing a single leaf and petiole (single-leaf plantlets) were collected from sweetpotato plants and incubated in flasks containing distilled water for 3 weeks. After fibrous roots had developed from the distal end of the petiole, the single-leaf plantlets were incubated in various concentrations of IAA (0, 50, 500, 1000, 2000 μM) at 25° C. in the dark for various time periods (0-24 h). After the hormone treatment, total RNA was extracted from the fibrous roots using the RNeasy Plant Mini Kit™ (Qiagen) and used for real-time and semi-quantitative reverse transcription-PCR (RT-PCR).
Total RNA (5 μg) was used for first-strand cDNA synthesis using the SuperScript III first-strand cDNA synthesis kit (Invitrogen). The resulting cDNA solution was then diluted with 30 μl of TE (10 mM TRIS-HCl, pH 8.0, 1 mM EDTA). The primers for real-time RT-PCR were as follows: SRD1 (5′-[…]-3′; SEQ ID NO.: 10), 5′-GTGCACGAAACTCCCCTT-3′; SEQ ID NO. 11). Real-time PCR analysis was performed using the LightCycler 480 quantification system (Roche Diagnostics) according to the manufacturer's instructions. Expression levels were normalized with β-tubulin expression amplified with 5′-[…]-3′ (SEQ ID NO.: 12) and 5′-[…]-3′ (SEQ ID NO.: 13) primers. PCR were performed starting with pre-denaturation at 95° C. for 10 min before 45 cycles of denaturation at 95° C. for 10 sec, annealing at 58° C. for 10 sec and extension at 72° C. for 20 sec. Following the amplification phase, a melting curve analysis was conducted from 65° C. to 97° C. The second derivative maximum method in the LightCycler 480 quantification software (Roche Diagnostics) was used to evaluate the data.

Compound: O=C(O)Cc1c[nH]c2ccccc12 [IAA, Indole-3-acetic acid]
- transcript level of SRD1 (50 μM IAA): decreased
- transcript level of SRD1 (time course) (500 μM IAA, 0.5 h after treatment): decreased compared with the control
- transcript level of SRD1 (time course) (500 μM IAA, 1 h after treatment): decreased compared with the control
- transcript level of SRD1 (time course) (500 μM IAA, 3 h after treatment): decreased compared with the control
- transcript level of SRD1 (time course) (500 μM IAA, 6 h after treatment): increased sharply
- transcript level of SRD1 (time course) (500 μM IAA, 12 h after treatment): decreased compared with the control
- transcript level of SRD1 (time course) (500 μM IAA, 24 h after treatment): decreased compared with the control
- transcript level of SRD1 (500 μM IAA): decreased
- transcript level of SRD1 (1000 μM IAA): increased sharply
- transcript level of SRD1 (2000 μM IAA): decreased to almost the same level as that observed at 0 μM IAA
